The molecules below were run on IL-2 production in a Human Jurkat Cell Line (assay: Inhibition of IL-2 production in PHA-stimulated Jurkat cells (IL-2 ELISA)). Details: Homo sapiens, Jurkat, 20 h, read-out: IC50 (concentration at which IL-2 release is inhibited by 50%).
Assay type: cell-based
Protocol: Jurkat cells (ATCC, Cat# TIB-152) were grown in RPMI1640 medium (ATCC, Cat# 30-2001) containing 10% of FBS (ATCC, Cat# 30-2020). For compound screening, Jurkat cells were plated in 96-well plates at a density of 0.5 million cells per well in RPMI1640 medium containing 1% of FBS. Then, various concentrations of each test compound were added to the cell plates followed by addition of PHA (Sigma, Cat# L-9017) at a final concentration of 2.5 μg/ml to stimulate IL-2 production. Cells were then incubated at 37° C. (+5% CO2) for 20 hours before ELISA assay. After 20 hours incubation, cell plates were centrifuged at 500-800 g for 5 minutes and the supernatants was collected for IL-2 detection using the human IL-2 ELISA kit purchased from Cell Sciences (Cat# 851.500.020). The ELISA assay for IL-2 production was done in 96-well plates using a protocol provided by Cell Sciences.
The IC50 (i.e., the concentration at which IL-2 release is inhibited by 50%) was determined and the results are shown in the Table. […] The designation “A” means an IC50 less than 0.010 μM; the designation B means an IC50 between 0.010 and 1.0 μM; and the designation “C” mean an IC50 greater than 1 μM.

`N#CC(=Cc1ccc(-n2ccc(C(F)(F)F)n2)cc1)C(=O)c1ccc(F)cc1F` [Compound 37, 2-(2,4-Difluoro-benzoyl)-3-[4-(3-trifluoromethyl-pyrazol-1-yl)-phenyl]-acrylonitrile] and `N#CC(=Cc1ccc(-n2ccc(C(F)(F)F)n2)cc1)C(=O)c1cc(F)ccc1F` [Compound 41, 2-(2,5-Difluoro-benzoyl)-3-[4-(3-trifluoromethyl-pyrazol-1-yl)-phenyl]-acrylonitrile] cannot be ordered by IC50: over 1 µM for the first, over 1 µM for the second.

`N#CC(=Cc1ccc(-n2ccc(C(F)(F)F)n2)cc1)C(=O)c1cccc(F)c1F` [Compound 38, 2-(2,3-Difluoro-benzoyl)-3-[4-(3-trifluoromethyl-pyrazol-1-yl)-phenyl]-acrylonitrile] and `N#CC(=Cc1ccc(-n2ccc(C(F)(F)F)n2)cc1)c1cc(F)ccc1F` [Compound 42, 2-(2,5-Difluoro-phenyl)-3-[4-(3-trifluoromethyl-pyrazol-1-yl)-phenyl]-acrylonitrile] cannot be ordered by IC50: over 1 µM for the first, over 1 µM for the second.

`Cc1cc(C(F)(F)F)n(-c2ccc(C=C(C#N)C(=O)c3ccc(F)cc3F)cc2)n1` [Compound 39, 2-(2,4-Difluoro-benzoyl)-3-[4-(3-methyl-5-trifluoromethyl-pyrazol-1-yl)-phenyl]-acrylonitrile] and `Cc1cc(C(F)(F)F)n(-c2ccc(C=C(C#N)C(=O)c3cc(F)ccc3F)cc2)n1` [Compound 40, 2-(2,5-Difluoro-benzoyl)-3-[4-(3-methyl-5-trifluoromethyl-pyrazol-1-yl)-phenyl]-acrylonitrile] cannot be ordered by IC50: over 1 µM for the first, over 1 µM for the second.

`N#CC(=Cc1cccc(-n2nc(C(F)(F)F)cc2C(F)(F)F)c1)c1cccc(F)c1F` [Compound 43, 3-[3-(3,5-Bis-trifluoromethyl-pyrazol-1-yl)-phenyl]-2-(2,3-difluoro-phenyl)-acrylonitrile] and `N#CC(=Cc1cccc(-n2nc(C(F)(F)F)cc2C(F)(F)F)c1)c1cc(F)ccc1F` [Compound 44, 3-[3-(3,5-Bis-trifluoromethyl-pyrazol-1-yl)-phenyl]-2-(2,5-difluoro-phenyl)-acrylonitrile] cannot be ordered by IC50: over 1 µM for the first, over 1 µM for the second.

`N#CC(=Cc1ccc(-n2c(C(F)(F)F)nc3ccccc32)cc1)c1cccc(F)c1F` [Compound 45, 2-(2,3-Difluoro-phenyl)-3-[4-(2-trifluoromethyl-benzoimidazol-1-yl)-phenyl]-acrylonitrile] and `N#CC(=Cc1ccc(-n2c(C(F)(F)F)nc3ccccc32)cc1)c1cc(F)ccc1F` [Compound 46, 2-(2,5-Difluoro-phenyl)-3-[4-(2-trifluoromethyl-benzoimidazol-1-yl)-phenyl]-acrylonitrile] fall in the same range of IC50: 0.01 to 1 µM for the first, 0.01 to 1 µM for the second.

In the case of `N#CC(=Cc1ccc(-n2cccn2)cc1)c1ccccc1F` [Compound 48, 2-(2-Fluoro-phenyl)-3-(4-pyrazol-1-yl-phenyl)-acrylonitrile], the IC50 is reported as over 1 µM.
